The structures appear in SMILES notation.

Sequence of PI3K-alpha enzyme (P42336 whole entry): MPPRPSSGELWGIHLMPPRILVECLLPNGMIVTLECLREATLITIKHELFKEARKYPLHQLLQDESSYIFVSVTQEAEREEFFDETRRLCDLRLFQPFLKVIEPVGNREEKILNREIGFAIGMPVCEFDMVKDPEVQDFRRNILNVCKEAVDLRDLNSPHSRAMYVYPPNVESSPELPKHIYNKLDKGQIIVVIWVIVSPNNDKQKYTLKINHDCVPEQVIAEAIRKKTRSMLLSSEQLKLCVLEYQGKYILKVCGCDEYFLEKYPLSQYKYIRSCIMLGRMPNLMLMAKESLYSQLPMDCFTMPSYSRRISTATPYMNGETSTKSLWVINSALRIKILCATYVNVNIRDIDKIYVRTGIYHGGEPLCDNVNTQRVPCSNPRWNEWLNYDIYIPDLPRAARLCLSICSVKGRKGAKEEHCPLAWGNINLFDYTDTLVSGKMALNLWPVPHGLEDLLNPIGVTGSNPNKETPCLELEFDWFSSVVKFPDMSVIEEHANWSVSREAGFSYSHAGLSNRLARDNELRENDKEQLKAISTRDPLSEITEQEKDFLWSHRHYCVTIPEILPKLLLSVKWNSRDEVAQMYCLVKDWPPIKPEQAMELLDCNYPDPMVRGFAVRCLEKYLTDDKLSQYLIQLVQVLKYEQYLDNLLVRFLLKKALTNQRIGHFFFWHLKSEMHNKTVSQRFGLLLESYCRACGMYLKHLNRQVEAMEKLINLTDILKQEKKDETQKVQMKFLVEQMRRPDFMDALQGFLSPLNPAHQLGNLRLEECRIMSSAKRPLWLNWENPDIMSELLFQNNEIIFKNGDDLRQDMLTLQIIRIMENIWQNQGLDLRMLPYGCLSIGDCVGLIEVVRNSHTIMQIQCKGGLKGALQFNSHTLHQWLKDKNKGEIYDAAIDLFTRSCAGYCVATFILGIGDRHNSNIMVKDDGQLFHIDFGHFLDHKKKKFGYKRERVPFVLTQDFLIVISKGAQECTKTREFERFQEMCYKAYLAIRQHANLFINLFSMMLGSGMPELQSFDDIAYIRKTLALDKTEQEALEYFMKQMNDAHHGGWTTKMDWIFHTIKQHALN
Sequence of PI3K-alpha enzyme (P27986 whole entry partner): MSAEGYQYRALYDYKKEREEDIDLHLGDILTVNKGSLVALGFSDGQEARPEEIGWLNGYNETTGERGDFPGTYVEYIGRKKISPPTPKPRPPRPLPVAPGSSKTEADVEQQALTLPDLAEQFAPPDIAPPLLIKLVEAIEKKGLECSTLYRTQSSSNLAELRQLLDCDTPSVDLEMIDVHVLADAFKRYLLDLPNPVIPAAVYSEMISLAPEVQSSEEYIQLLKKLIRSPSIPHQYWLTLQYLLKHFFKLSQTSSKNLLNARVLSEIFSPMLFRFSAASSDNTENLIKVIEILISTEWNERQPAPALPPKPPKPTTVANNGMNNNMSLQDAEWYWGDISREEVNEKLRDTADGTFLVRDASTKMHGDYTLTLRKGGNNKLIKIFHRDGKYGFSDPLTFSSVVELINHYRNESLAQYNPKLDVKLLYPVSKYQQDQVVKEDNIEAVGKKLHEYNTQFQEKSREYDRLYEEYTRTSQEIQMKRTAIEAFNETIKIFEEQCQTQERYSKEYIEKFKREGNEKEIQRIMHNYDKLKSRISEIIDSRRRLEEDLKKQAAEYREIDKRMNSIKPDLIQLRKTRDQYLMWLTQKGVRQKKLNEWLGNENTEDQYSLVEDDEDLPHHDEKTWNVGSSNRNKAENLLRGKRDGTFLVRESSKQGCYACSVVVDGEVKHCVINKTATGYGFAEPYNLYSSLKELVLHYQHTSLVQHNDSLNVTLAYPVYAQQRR

This test deals with PI3K-alpha enzyme (Homo sapiens (Human), UniProt P42336). Briefly: PI3-Kinase (human) HTRF Assay kit, PI3K alpha enzyme IC50 determination. Format: biochemical. Particulars: ATP 10 μM, PIP2 10 μM, 1% DMSO, 30 min at room temperature, double holes per concentration, read-out: half inhibitory concentration (IC50) on PI3K-alpha. As to the method:
• 4× Reaction Buffer was diluted to 1× with ddH2O, and 1M DTT was added to make the final concentration of 5 mM. Prepare fresh before each use. For example, to prepare 10 mL 1× Reaction Buffer, adding 2.5 mL 4× Reaction Buffer, 50 μL 1 M DTT, and 7.45 mL ddH2O. Throughout the experiment, freshly prepared 1× Reaction Buffer was used to prepare ATP working solution, substrate and enzyme mixed working solution, etc.
• The compound to be tested was dissolved in DMSO to 1 mM as a storage solution, and then diluted with DMSO in a 4-fold ratio for a total of 10 concentration points. 1 μL of each was added to 24 μL 1× Reaction Buffer. 5 μL of each diluted solution was added into a 384-well plate and contained 1% DMSO.
• 1× reaction buffer was used to prepare 2×PIP2 working solution to make the final concentration of 20 μM and PIP2 reaction final concentration of 10 μM, for example, to prepare 1 ml 1× reaction buffer/PIP2 working solution, add 20 μL of PIP2 to 980 μL 1× reaction buffer. This working solution should be prepared with 0.1-0.2 ml more to meet the control usage and dead volume.
• The kinase was diluted with 2×PIP2 working solution, and the concentration of the kinase working solution was 10 ng/well.
• That is, 2×PIP2 working solution.
• 10 mM ATP was diluted to 40 μM with 1× reaction buffer. In a 20 μL kinase reaction system, the concentration of ATP was 10 μM. For example, to prepare 2 ml ATP working solution, take 8 μL 10 mM ATP and add it to 1992 μL 1× reaction buffer.
• Stop A and Stop B were mixed in a ratio of 3:1 and can be used after at least 2 hours at room temperature.
• DM C, DM A and DM B were mixed in a ratio of 18:1:1, and can be used after at least 2 hours at room temperature.
• Emission Ratio (ER)=[…] Emission signal/620 nm Emission signal • The average emission intensity ratio (Emission Ratio) of the 100% inhibition control is recorded as: ER100% • The average Emission Ratio of the 0% inhibition control is recorded as: ER0%
• The inhibition rate is calculated with the following formula: Inhibition rate=(ERsample−ER0%)/(ER100%−ER0%)×100% [(ERpositive−ERsample)/(ERpositive−ERnegative)*100%]
With `CC1(C)C(=O)Nc2cc(NC(=O)Nc3ccc(-c4nc(N5CCOCC5)c5[nH]nc(N)c5n4)cc3)ccc21` [Compound I-4, 1-(4-(3-amino-7-morpholino-1H-pyrazolo[4,3-d]pyrimidin-5-yl)phenyl)-3-(3,3-dimethyl-2-oxoindolin-6-yl)urea], the IC50 amounted to 108 nM.
Regarding `CS(=O)(=O)NC(=O)Cc1ccc(NC(=O)Nc2ccc(-c3nc(N4CCOCC4)c4[nH]nc(N)c4n3)cc2)cc1` [Compound I-3, 2-(4-(3-(4-(3-amino-7-morpholino-1H-pyrazolo[4,3-d]pyrimidin-5-yl)phenyl)ureido)phenyl)-N-(methylsulfonyl)acetamide], the IC50 stood at 89.1 nM.
For `CC(C)(O)c1ccc(NC(=O)Nc2ccc(-c3nc(N4CCOCC4)c4[nH]nc(N)c4n3)cc2)cc1` [Compound I-2, 1-(4-(3-amino-7-morpholino-1H-pyrazolo[4,3-d]pyrimidin-5-yl)phenyl)-3-(4(2-hydroxypropan-2-yl)phenyl)urea] the value was 89.6 nM; for `Nc1n[nH]c2c(N3CCOCC3)nc(-c3ccc(NC(=O)Nc4ccc(CO)cc4)cc3)nc12` [Compound I-1, 1-(4-(3-amino-7-morpholino-1H-pyrazolo[4,3-d]pyrimidin-5-yl)phenyl)-3-(4-(hydroxymethyl)phenyl)urea], 10.7 nM; for `Nc1n[nH]c2c(N3CCOCC3)nc(-c3ccc(NC(=O)Nc4ccc(CO)c(C(F)(F)F)c4)cc3)nc12` [Compound I-5, 1-(4-(3-amino-7-morpholino-1H-pyrazolo[4,3-d]pyrimidin-5-yl)phenyl)-3-(4-(hydroxymethyl)-3-(trifluoromethyl)phenyl)urea], 228 nM.
In the case of `Nc1n[nH]c2c(N3CCOCC3)nc(-c3ccc(NC(=O)Nc4ccc(COCCN5CCOCC5)cc4)cc3)nc12` [Compound I-6, 1-(4-(3-amino-7-morpholino-1H-pyrazolo[4,3-d]pyrimidin-5-yl)phenyl)-3-(4-((2-morpholinoethoxy)methyl)phenyl)urea] it was 40.9 nM.
